US9988430B2, “Stable GLP-1 based GLP-1/glucagon receptor co-agonists” (Novo Nordisk A/S, priority 2014, dated 2018)
pEC50: −log10 of the molar value. *1 amine or outer side, *2 acyl side, *3 side chain or, on linkers, in order; H or OH if unused. Where a SMILES comes first, the peptide text is derived from it. Bridges are numbered along the chain shown (N, C = ends). Roman numbers before positions name the chains, in order. Side-chain parts run from the residue outwards. [ ]: non-standard residue; d: D form. The star is where a group is joined. C18 diacid = O=C(O)CCCCCCCCCCCCCCCCC(=O)*; γGlu = O=C(O)[C@H](CCC(=O)[*:2])N[*:1]; Desaminohistidyl = O=C(CCc1c[nH]cn1)*; Ac4c = NC1(C(=O)O)CCC1; AEEA = NCCOCCOCC(=O)O; Aib = CC(C)(N)C(=O)O

Molecular target: T1, human GLP-1 receptor (Homo sapiens, UniProt P43220)
T1 construct: expressed in transfected cells; host or cells: membranes of BHK cells, parent line BHKTS13, clone FCW467-12A
Experiment: Assay (I)(a): GLP-1 receptor potency, CRE luciferase reporter gene assay in BHK cells
Format: cell-based
Conditions: BHK cells expressing human GLP-1 receptor, read-out: EC50 GLP-1R
How it was run: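 BHK cells (clone FCW467-12A/KZ10-1), 5×10EE3/well, exposed 3 h at 37° C to compound at 1×10EE-13 to 1×10EE-6 M final in medium with 2% ovalbumin and 0.2% Pluronic F-68. Luciferase luminescence read; EC50 (pM) from four-parameter fit.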

T1 sequence (P43220 24-463): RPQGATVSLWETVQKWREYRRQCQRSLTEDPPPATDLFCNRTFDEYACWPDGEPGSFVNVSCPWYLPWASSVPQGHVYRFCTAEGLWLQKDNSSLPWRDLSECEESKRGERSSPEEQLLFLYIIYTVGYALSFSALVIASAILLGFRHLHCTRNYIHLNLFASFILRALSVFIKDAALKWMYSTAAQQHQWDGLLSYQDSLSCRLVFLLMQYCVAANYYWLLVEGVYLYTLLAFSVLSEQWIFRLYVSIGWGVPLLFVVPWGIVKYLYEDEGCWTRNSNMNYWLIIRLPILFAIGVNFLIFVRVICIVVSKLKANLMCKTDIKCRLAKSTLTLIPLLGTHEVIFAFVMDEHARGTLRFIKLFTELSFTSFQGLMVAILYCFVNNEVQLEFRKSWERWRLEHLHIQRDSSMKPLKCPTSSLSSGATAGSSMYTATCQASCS

pEC50 | SMILES
11.22 | CC[C@H](C)[C@H](NC(=O)[C@H](Cc1ccccc1)NC(=O)[C@H](CCC(=O)O)NC(=O)[C@H](CCCNC(=N)N)NC(=O)[C@H](C)NC(=O)[C@H](C)NC(=O)[C@H](CCC(N)=O)NC(=O)[C@H](CCC(=O)O)NC(=O)[C@H](CCC(=O)O)NC(=O)[C@H](CC(C)C)NC(=O)[C@H](Cc1ccc(O)cc1)NC(=O)[C@H](CCCCN)NC(=O)[C@H](CO)NC(=O)[C@@H](NC(=O)[C@H](CC(=O)O)NC(=O)[C@H](CO)NC(=O)[C@@H](NC(=O)[C@H](Cc1ccccc1)NC(=O)[C@@H](NC(=O)CNC(=O)[C@H](Cc1c[nH]cn1)NC(=O)C(C)(C)NC(=O)CCc1c[nH]cn1)[C@@H](C)O)[C@@H](C)O)C(C)C)C(=O)N[C@@H](C)C(=O)N[C@@H](Cc1c[nH]c2ccccc12)C(=O)N[C@@H](CC(C)C)C(=O)N[C@@H](CC(C)C)C(=O)N[C@@H](CCCCNC(=O)COCCOCCNC(=O)COCCOCCNC(=O)CC[C@H](NC(=O)CCCCCCCCCCCCCCCCC(=O)O)C(=O)O)C(=O)N[C@H](C(N)=O)[C@@H](C)O [Example 12, N^ε34-[2-[2-[2-[[2-[2-[2-[[(4S)-4-carboxy-4-(17-carboxyheptadecanoylamino)butanoyl]amino]ethoxy]ethoxy]acetyl]amino]ethoxy]ethoxy]acetyl]-[Imp7,Aib8,His9,Lys18,Glu22,Arg26,Leu33,Thr35]-GLP-1-(7-35)-peptide amide] (Desaminohistidyl-[Aib]HGTFTSDVSKYLEEQAAREFIAWLLK([AEEA-AEEA-γGlu-C18 diacid])T-NH2)
10.92 | CC[C@H](C)[C@H](NC(=O)[C@H](Cc1ccccc1)NC(=O)[C@H](CCC(=O)O)NC(=O)[C@H](CCCNC(=N)N)NC(=O)[C@H](C)NC(=O)[C@H](C)NC(=O)[C@H](CCCNC(=N)N)NC(=O)CNC(=O)[C@H](CCC(=O)O)NC(=O)[C@H](CC(C)C)NC(=O)[C@H](Cc1ccc(O)cc1)NC(=O)[C@H](CCCCN)NC(=O)[C@H](CO)NC(=O)[C@@H](NC(=O)[C@H](CC(=O)O)NC(=O)[C@H](CO)NC(=O)[C@@H](NC(=O)[C@H](Cc1ccccc1)NC(=O)[C@@H](NC(=O)CNC(=O)[C@H](Cc1c[nH]cn1)NC(=O)C1(NC(=O)CCc2c[nH]cn2)CCC1)[C@@H](C)O)[C@@H](C)O)C(C)C)C(=O)N[C@@H](C)C(=O)N[C@@H](Cc1c[nH]c2ccccc12)C(=O)N[C@@H](CC(C)C)C(=O)N[C@@H](CC(C)C)C(=O)N[C@@H](CCCCNC(=O)CNC(=O)[C@H](CO)NC(=O)[C@H](CCC(=O)O)NC(=O)CNC(=O)[C@H](CO)NC(=O)CC[C@H](NC(=O)CC[C@H](NC(=O)CCCCCCCCCCCCCCCCC(=O)O)C(=O)O)C(=O)O)C(=O)N[C@H](C(N)=O)[C@@H](C)O [Example 20, N^ε34-[2-[[(2S)-2-[[(2S)-4-carboxy-2-[[2-[[(2S)-2-[[(4S)-4-carboxy-4-[[(4S)-4-carboxy-4-(17-carboxyheptadecanoylamino)butanoyl]amino]butanoyl]amino]-3-hydroxypropanoyl]amino]acetyl]amino]butanoyl]amino]-3-hydroxypropanoyl]amino]acetyl]-[Imp7,Acb8,His9,Lys18,Arg23,Arg26,Leu33,Thr35]-GLP-1-(7-35)-peptide amide] (I: Desaminohistidyl-[Ac4c]HGTFTSDVSKYLEGRAAREFIAWLLKT-NH2 / II: {C18 diacid-γGlu-γGlu}-SGESG; amide I:27-II:C)
11.52 | CC[C@H](C)[C@H](NC(=O)[C@H](Cc1ccccc1)NC(=O)[C@H](CCC(=O)O)NC(=O)[C@H](CCCNC(=N)N)NC(=O)[C@H](C)NC(=O)[C@H](C)NC(=O)[C@H](CCCNC(=N)N)NC(=O)CNC(=O)[C@H](CCC(=O)O)NC(=O)[C@H](CC(C)C)NC(=O)[C@H](Cc1ccc(O)cc1)NC(=O)[C@H](CCCNC(=N)N)NC(=O)[C@H](CO)NC(=O)[C@@H](NC(=O)[C@H](CC(=O)O)NC(=O)[C@H](CO)NC(=O)[C@@H](NC(=O)[C@H](Cc1ccccc1)NC(=O)[C@@H](NC(=O)CNC(=O)[C@H](Cc1c[nH]cn1)NC(=O)C(C)(C)NC(=O)CCc1c[nH]cn1)[C@@H](C)O)[C@@H](C)O)C(C)C)C(=O)N[C@@H](C)C(=O)N[C@@H](Cc1c[nH]c2ccccc12)C(=O)N[C@@H](CC(C)C)C(=O)N[C@@H](CC(C)C)C(=O)N[C@@H](CCCCNC(=O)CC[C@H](NC(=O)CC[C@H](NC(=O)COCCOCCNC(=O)CC[C@H](NC(=O)CC[C@H](NC(=O)CCCCCCCCCCCCCCCCC(=O)O)C(=O)O)C(=O)O)C(=O)O)C(=O)O)C(=O)NCC(=O)N[C@@H](C)C(=O)NCC(=O)O [Example 35, N^ε34-[(4S)-4-carboxy-4-[[(4S)-4-carboxy-4-[[2-[2-[2-[[(4S)-4-carboxy-4-[[(4S)-4-carboxy-4-(17-carboxyheptadecanoylamino)butanoyl]amino]butanoyl]amino]ethoxy]ethoxy]acetyl]amino]butanoyl]amino]butanoyl]-[Imp7,Aib8,His9,Arg18,Arg23,Arg26,Leu33,Ala36]-GLP-1-(7-37)-peptide] (Desaminohistidyl-[Aib]HGTFTSDVSRYLEGRAAREFIAWLLK([γGlu-γGlu-AEEA-γGlu-γGlu-C18 diacid])GAG-OH)
